Consider 1 compound from publication PMC8157322, “Gd(III)–Pt(IV) theranostic contrast agents for tandem MR imaging and chemotherapy” (Chemical Science, 2020).

Data set [1] can be described thus: Stability in aqueous media monitored by HPLC-MS. The format is physicochemical. The method, then: (§1) To ensure both agents remain stable in aqueous media under various conditions, they were dissolved in PBS, two types of cell culture media (MEM and RPMI-1640), pH 5 H2O, and porcine live esterase (PLE) in PBS and monitored over time by HPLC-MS. […]
(§2) Stability of GP1 and GP2 in various aqueous media. Aliquots of GP1 and GP2 were prepared from a stock with known mass checked by ICP-MS. An aliquot of each was dissolved in H2O and analyzed by HPLC-MS using an Atlantis C18 column (4.6 × 250 mm, 5 μm) and the following method: MeCN held at 0% for 3 min followed by a 15 min ramp to 100% MeCN (GP1 retention time: 10.9 min, GP2 retention time: 11.6 min). Aliquots of both were additionally dissolved in PBS, MEM, RPMI-1640, pH 5 H2O, PBS with 10 units/mL porcine liver esterase, 5 mM glutathione, and 5 mM sodium ascorbate, incubated in a shaker at 37 °C, and were analyzed by HPLC-MS at different time points using the same method. At each time point, the area of the peak of GP1 or GP2 was determined by integration and compared to the area of the peaks in […]

Data set [2] has as its system A2780 cells. In words: MR imaging of cell pellets at 7 T. The format is cell-based. The note with it: A2780, 7 T, 6 h incubation; cisplatin 7.5 μM, 1 100 μM, GP1 30 μM, GP2 60 μM.
In data set [3] the test system is HeLa cells. In words: MR imaging of cell pellets at 7 T. The data set is classed as cell-based. The note with it: 6 h incubation, cisplatin 15 μM, 1 100 μM, GP1 60 μM, GP2 250 μM.
Data set [4] is described as follows: Reduction by 5 mM GSH / 5 mM ascorbate at 37 °C (HPLC-MS). The data set is classed as physicochemical. As to the method:
Under reducing conditions both agents rapidly converted to a monomeric Gd(III) complex and a Pt(II) drug. Each agent was incubated with 5 mM GSH and 5 mM ascorbate at 37 °C to mimic intracellular conditions. […] This is not surprising, as ascorbate is a weaker reducing agent. […]
solution. These capillaries were imaged using a Bruker PharmaScan 7 T MR imaging spectrometer (Bruker BioSpin, Billerica, MA, USA). T1 relaxation times were measured using a rapid-acquisition rapid-echo (RARE-VTR) T1-map pulse sequence with static TE (10 ms) and […]
Stability of GP1 and GP2 in various aqueous media. […] An aliquot of each was dissolved in H2O and analyzed by HPLC-MS using an Atlantis C18 column (4.6 × 250 mm, 5 μm) and the following method: MeCN held at 0% for 3 min followed by a 15 min ramp to 100% MeCN (GP1 retention time: 10.9 min, GP2 retention time: 11.6 min). Aliquots of both were additionally dissolved in PBS, MEM, RPMI-1640, pH 5 H2O, PBS with 10 units/mL porcine liver esterase, 5 mM glutathione, and 5 mM sodium ascorbate, incubated in a shaker at 37 °C, and were analyzed by HPLC-MS at different time points using the same method. At each time point, the area of the peak of GP1 or GP2 was determined by integration and compared to the area of the peaks in H2O. […]

Data set [5] has as its system porcine liver esterase (PLE). The data set can be described thus: Stability in porcine liver esterase in PBS (HPLC-MS). The settings on record: PBS with 10 units/mL porcine liver esterase, 37 °C. The format is in vitro ADME. The method, then:
as §1, §2

For the compound `[NH2][Pt]([NH2])([OH])([Cl])([Cl])[O]C(=O)CCCCCN1CCN2CCN3CCN(CC1)CC(=O)[O][Gd]([O]C(=O)C2)[O]C(=O)C3` [GP1], in data set [1] (MEM, 37 °C, at 48 hours), the “Agent intact in MEM” value was not below 92%. Further, in data set [1] (PBS, 37 °C, over 48 hours), the “Stability in PBS” value is “completely stable”. Also, the “Agent reduced to Pt(II) in RPMI-1640” value in data set [1] (RPMI-1640 (0.003 mM GSH), 37 °C, within 48 hours) came to 33%. For the same compound, the “Agent intact in RPMI-1640” value in data set [1] (RPMI-1640, 37 °C, at 6 hours) was not below 96%. The “Stability in pH 5 H2O” value in data set [1] (pH 5 H2O, 37 °C, over 48 hours) is “completely stable”. In data set [2], the “T1 of cell pellet” value was found to be 1708 ± 27 ms and the “Δ R1 (increase in R1 vs untreated control)” value is reported as 36%. For the same compound, in data set [3], the “T1 of cell pellet” value came to 1557 ± 17 ms and the “Δ R1 (increase in R1 vs untreated control)” value is recorded as 48%. In data set [4] (5 mM GSH, in less than an hour), the “Reduction by GSH” value was not below 94%. For the same compound, the Reduction by ascorbate entry in data set [4] (5 mM ascorbate, compared to GSH) is listed as “reduced by ascorbate, albeit it at a much slower rate”. In data set [5], the “Decrease in stability in presence of PLE” value is on record as approximately 10%.
